Test results reported in US20240050385A1, “METHODS OF TREATING LEPTOMENINGEAL METASTASIS” (MEMORIAL SLOAN-KETTERING CANCER CENTER, priority 2020, published 2024).
Entries after “also recorded” stand apart in the source; their conditions may differ. Where a name gives a salt, the structure may show the parent alone.

How the values were obtained:
MDA231-LeptoM cells = experiment: In vivo leptomeningeal metastasis assay, MDA231-LeptoM model, intracisternal chelator treatment; parameters: species or system mouse; settings: for Median Survival: every 3 days; for [Fe]: total iron in CSF
Method: FIG. 15A-15G. LCN2 transports iron to support cancer cell growth. (A) Tumor growth in mice injected with MDA231-LeptoM cells expressing shCtl or shLCN2. Treatment with either vehicle or 5 mg/mL holo-transferrin (diferric [Tf]) began on day 1 and continued every third day for a total of 7 doses. Left: Histogram represents in vivo BLI imaging post-inoculation at day 21. n=8-10 per group in each of two independent experiments. Right: Representative BLI images. ** indicates p<0.01 (unpaired t test). Data represent mean±SEM. (B) Kaplan-Meier survival curve of LeptoM groups from (A). sh1+Veh vs sh1+Tf, p<0.0001. sh2+Veh vs sh2+Tf, p<0.0001. (C) Soluble iron concentration from macrophages collected from CSF in lipopolysaccharide (LPS)-stimulated, LeptoM or LeptoM-shLCN2 (sh1 and sh2) mouse model at day 14. Soluble iron was measured by mass spectroscopy. n=4 per group. ** indicates p<0.01, *** indicates p<0.001, **** indicates p<0.0001 (unpaired t test). Data represent mean±SEM. (D and E) Phagocytosis (D) and reactive oxygen species (ROS) generation (E) in CSF-derived macrophages by flow cytometric analysis after LeptoM (LLC model), shLCN2 LPS, or vehicle (Ctl) treatment. Phagocytosis detected by FITC-labeled E. coli. CellROX Green^+ cells represent percent of live cells with ROS. n=12-15 (Ctl), n=4-5 (LPS), n=11-18 (LeptoM), n=8 (shLCN2). NS=not significant, * indicates p<0.05, ** indicates p<0.01, **** indicates p<0.0001 (unpaired t test). Data represent mean±SEM in two independent experiments. (F) Tumor growth in MDA231-LeptoM model after chelator treatment: deferoxamine (DFO), D-penicillamine (D-Pen) on […] (early) or day 7 (late); see also FIG. 16. Left: in vivo BLI imaging in day 28 post-inoculation. n=8-10 per group in each of two independent experiments. Right: Representative BLI images. **** indicates p<0.0001. Data represent mean±SEM. (G) Kaplan-Meier survival curve of mice treated in (F). p<0.0001.
(§1) FIG. 16A-16L. Iron chelator treatment reduces CSF iron. (A) Experimental scheme. Mice were inoculated with 2×10^3 cells intrathecally on day 0. Treatment with either vehicle, DFO, or D-pen was commenced on either day 1 or day 7 and continued every third day for a total of 7 doses. (B) Chelators delivered intrathecally. DFO, Deferoxamine. D-Pen, D-Penicillamine. (C-F) Intracellular iron (C and E) and viability (D and F) of PC9-LeptoM cells and MDA231-LeptoM cells after treatment with chelators in different concentrations (0 μM, 1 μM, 10 μM and 100 μM). n=3-4 per group in each of two independent experiments. * indicates p<0.05, ** indicates p<0.01, ***indicates p<0.001, **** indicates p<0.0001 (unpaired t test). Data represent mean±SEM. (G) Growth of PC9-LeptoM tumor after treatment indicated in (A). Left: in vivo BLI imaging in day 28 post-inoculation. n=8-10 per group in each of two independent experiments. Right: Representative BLI images. **** indicates p<0.0001. Data represent mean±SEM. (H) Kaplan-Meier survival curve from (C) and (E). p<0.0001. (I and J) Total iron concentration measured in CSF samples of mice with treatment of chelators in PC9-LeptoM Model (I) in MDA231-LeptoM model (J). NS=not significant, * indicates p<0.05, ** indicates p<0.01 (unpaired t test). Data represent mean±SEM. (K and L) Immune cell composition in CSF of LLC-LeptoM model with the treatment of vehicle, DFO, or D-pen at day 10. n=6 per group. NS=not significant, * indicates p<0.05, ** indicates p<0.01 (unpaired t test). Data represent mean±SEM.
In vivo leptomeningeal metastasis assays. To model leptomeningeal metastasis with a known consistent disease burden, 2×10^3 PC9, 2×10^3 MDA231, or 1×10^3 LLC Parental or LeptoM cells suspended in 10 μl PBS were injected into the cisterna magna of anesthetized mice. This procedure was tolerated well by the mice. Tumor progression was monitored by bioluminescence imaging (BLI) every 7 days after tumor cell inoculation, and mouse condition was monitored daily. […]

PC9-LeptoM cells = experiment: In vivo leptomeningeal metastasis assay, PC9-LeptoM model, intracisternal chelator treatment; parameters: species or system mouse; settings: for Median Survival: every 3 days; for [Fe]: total iron in CSF
From the text: as §1
In vivo leptomeningeal metastasis assays. To model leptomeningeal metastasis with a known consistent disease burden, 2×10^3 PC9, 2×10^3 MDA231, or 1×10^3 LLC Parental or LeptoM cells suspended in 10 μl PBS were injected into the cisterna magna of anesthetized mice. This procedure was tolerated well by the mice. Tumor progression was monitored by bioluminescence imaging (BLI) every 7 days after tumor cell inoculation, and mouse condition was monitored daily. When the tumor cells encompassed the entire CNS, or when neurological impairment became apparent, CSF was collected as described above, and mice were euthanized. Brains and spinal cord were collected in tissue fixative and embedded for preservation or histological and morphometric analysis. The role of LCN2 in cancer progression at multiple metastatic sites was also assessed. Tumor burden was monitored and quantified non-invasively after tumor cell inoculation either by BLI signal using the IVIS Spectrum Xenogen (Caliper Life Sciences) machine or with calibrated digital caliper. To track cancer cell growth after hematogenous dissemination, 5×10^4 PC9-LeptoM cells (shCtl, shLCN2-1 and shLCN2-2) suspended in 50 μL PBS were injected into the left heart ventricle. Tumor burden was monitored every 3 days with BLI. To measure cancer cell growth in the lungs, 2.5×10^4 PC9-LeptoM cells (diluted 1:1 in Growth factor-reduced Matrigel, #354230) were injected into the left lung through the rib cage. Tumor burden was monitored every 3 days with BLI. To assess cancer cell growth after subcutaneous inoculation, 1×10^6 PC9-LeptoM cells (diluted 1:1 in growth factor-reduced Matrigel) were injected under the flank skin of the mouse, and tumor burden was monitored every 3 days with calibrated digital caliper. To introduce cells into the mammary fat pad, 5×10^4 MDA-231-LeptoM cells (diluted 1:1 in growth factor-reduced Matrigel) were injected into the fourth inguinal mammary fat pad; tumor burden was measured every 3 days with calibrated digital caliper. To test a hypoxic environment other than the leptomeninges, 5×10^6 cells, diluted in 200 uL PBS, were injected intraperitoneally. Tumor burden was monitored 7 days after inoculation by BLI. Exact numbers for each experimental series are included in the relevant Figure legends.
Mouse CSF collection and Intrathecal drug administration. […]

Row | Structure (SMILES) | Median Survival (MDA231-LeptoM cells; MDA231-LeptoM model, intracisternal, start day not given) [days] | [Fe] (MDA231-LeptoM cells; MDA231-LeptoM model, start day not given) [µM] | Median Survival (PC9-LeptoM cells; PC9-LeptoM model, intracisternal, start day not given) [days] | [Fe] (PC9-LeptoM cells; PC9-LeptoM model, start day not given) [µM] | iron concentration in the CSF compared to control mice (MDA231-LeptoM cells; MDA231-LeptoM model, day 28, in words) | [Fe] (MDA231-LeptoM cells; MDA231-LeptoM model, early (day 0)) [µM] | [Fe] (MDA231-LeptoM cells; MDA231-LeptoM model, late (day 7)) [µM] | Median Survival (MDA231-LeptoM cells; MDA231-LeptoM model, treatment begun early (day 0)) [days] | Median Survival (MDA231-LeptoM cells; MDA231-LeptoM model, treatment begun late (day 7)) [days] | dissemination of cancer cells over the spinal cord (MDA231-LeptoM cells; MDA231 mouse model, both early and late treatment groups, in words) | survival compared with vehicle control (MDA231-LeptoM cells; MDA231 mouse model, in words) | iron concentration in the CSF compared to control mice (PC9-LeptoM cells; PC9-LeptoM model, day 28, in words) | [Fe] (PC9-LeptoM cells; PC9-LeptoM model, late (day 7)) [µM] | Median Survival (PC9-LeptoM cells; PC9-LeptoM model, treatment begun late (day 7)) [days] | dissemination of cancer cells over the spinal cord (PC9-LeptoM cells; PC9 mouse model, both early and late treatment groups, in words) | survival compared with vehicle control (PC9-LeptoM cells; PC9 mouse model, in words)
1 | CC(C)(S)[C@@H](N)C(=O)O [D-Pen, D-penicillamine] | 28 ± 7 | 39.44 ± 2.43 | 31.5 ± 3.5 | 15.13 ± 4.21 | – | – | – | – | – | – | – | – | – | – | – | –
2 | CC(=O)N(O)CCCCCNC(=O)CCC(=O)N(O)CCCCCNC(=O)CCC(=O)N(O)CCCCCN [DFO, Deferoxamine mesylate] | – | – | – | – | profoundly decreased; also recorded: reduced CSF iron concentration to that of non-LeptoM control mice | 10.55 ± 1.31 | 9.19 ± 0.98 | 54.5 ± 5.5 | 38 ± 7 | impaired dissemination | conferred a survival benefit; also recorded: significant survival benefit | profoundly decreased; also recorded: reduced CSF iron concentration to that of non-LeptoM control mice | 4.74 ± 0.38 | 40 ± 5 | impaired dissemination | conferred a survival benefit; also recorded: significant survival benefit
